From publication PMC6437697 (Journal of Medicinal Chemistry, 2019)

How the values were obtained:
Experiment in all cases: KINOMEscan
Assay type in all cases: binding
EGFR = molecular target: T1, EGFR (Homo sapiens, UniProt P00533); details: read-out: % control activity remaining
T1 construct: purchased Eurofins DiscoverX KINOMEscan

BTK = molecular target: T2, BTK (Homo sapiens, UniProt Q06187); details: read-out: % control activity remaining
T2 construct: purchased Eurofins DiscoverX KINOMEscan
T2 sequence (Q06187 whole entry): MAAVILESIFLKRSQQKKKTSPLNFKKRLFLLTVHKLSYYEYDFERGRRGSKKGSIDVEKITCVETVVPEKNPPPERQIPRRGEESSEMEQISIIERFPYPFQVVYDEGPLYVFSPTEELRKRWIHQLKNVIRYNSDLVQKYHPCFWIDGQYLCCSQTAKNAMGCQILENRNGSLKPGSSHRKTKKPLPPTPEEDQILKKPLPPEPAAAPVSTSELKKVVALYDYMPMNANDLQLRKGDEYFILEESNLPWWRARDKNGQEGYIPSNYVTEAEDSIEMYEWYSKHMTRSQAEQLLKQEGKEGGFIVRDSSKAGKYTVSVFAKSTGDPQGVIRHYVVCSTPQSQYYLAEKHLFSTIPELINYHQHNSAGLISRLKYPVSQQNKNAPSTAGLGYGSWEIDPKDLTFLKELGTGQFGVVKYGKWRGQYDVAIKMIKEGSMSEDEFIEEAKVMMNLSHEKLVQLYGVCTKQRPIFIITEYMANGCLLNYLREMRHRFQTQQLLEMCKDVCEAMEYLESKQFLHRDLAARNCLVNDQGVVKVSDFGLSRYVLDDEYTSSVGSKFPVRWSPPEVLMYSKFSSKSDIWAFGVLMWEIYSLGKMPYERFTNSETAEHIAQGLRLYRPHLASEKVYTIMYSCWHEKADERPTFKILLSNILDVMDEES

PDGFRA = molecular target: T3, PDGFRA (Homo sapiens, UniProt P16234); details: read-out: % control activity remaining
T3 construct: purchased Eurofins DiscoverX KINOMEscan

ZAP70 = molecular target: T4, ZAP70 (Homo sapiens, UniProt P43403); details: read-out: % control activity remaining
T4 construct: purchased Eurofins DiscoverX KINOMEscan
T4 sequence (P43403 1-619): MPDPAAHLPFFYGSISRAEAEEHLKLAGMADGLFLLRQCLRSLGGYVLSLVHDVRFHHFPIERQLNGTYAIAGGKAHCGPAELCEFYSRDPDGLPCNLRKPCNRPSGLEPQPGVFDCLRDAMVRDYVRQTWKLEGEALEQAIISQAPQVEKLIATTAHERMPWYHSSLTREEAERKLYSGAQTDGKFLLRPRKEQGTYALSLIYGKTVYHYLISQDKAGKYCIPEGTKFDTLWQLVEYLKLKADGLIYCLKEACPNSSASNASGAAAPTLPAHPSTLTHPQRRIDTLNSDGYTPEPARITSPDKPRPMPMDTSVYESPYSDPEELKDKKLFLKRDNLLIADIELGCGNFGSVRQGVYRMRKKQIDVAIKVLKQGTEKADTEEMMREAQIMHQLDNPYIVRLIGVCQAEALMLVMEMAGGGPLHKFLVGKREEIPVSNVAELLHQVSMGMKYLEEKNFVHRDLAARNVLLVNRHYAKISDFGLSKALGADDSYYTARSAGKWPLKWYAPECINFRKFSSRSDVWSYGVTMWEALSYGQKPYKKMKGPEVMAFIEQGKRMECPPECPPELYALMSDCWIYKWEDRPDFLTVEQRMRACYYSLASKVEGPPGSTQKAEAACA

WNK3 = molecular target: T5, WNK3 (Homo sapiens, UniProt Q9BYP7); details: read-out: % control activity remaining
T5 construct: purchased Eurofins DiscoverX KINOMEscan
T5 sequence (Q9BYP7 whole entry): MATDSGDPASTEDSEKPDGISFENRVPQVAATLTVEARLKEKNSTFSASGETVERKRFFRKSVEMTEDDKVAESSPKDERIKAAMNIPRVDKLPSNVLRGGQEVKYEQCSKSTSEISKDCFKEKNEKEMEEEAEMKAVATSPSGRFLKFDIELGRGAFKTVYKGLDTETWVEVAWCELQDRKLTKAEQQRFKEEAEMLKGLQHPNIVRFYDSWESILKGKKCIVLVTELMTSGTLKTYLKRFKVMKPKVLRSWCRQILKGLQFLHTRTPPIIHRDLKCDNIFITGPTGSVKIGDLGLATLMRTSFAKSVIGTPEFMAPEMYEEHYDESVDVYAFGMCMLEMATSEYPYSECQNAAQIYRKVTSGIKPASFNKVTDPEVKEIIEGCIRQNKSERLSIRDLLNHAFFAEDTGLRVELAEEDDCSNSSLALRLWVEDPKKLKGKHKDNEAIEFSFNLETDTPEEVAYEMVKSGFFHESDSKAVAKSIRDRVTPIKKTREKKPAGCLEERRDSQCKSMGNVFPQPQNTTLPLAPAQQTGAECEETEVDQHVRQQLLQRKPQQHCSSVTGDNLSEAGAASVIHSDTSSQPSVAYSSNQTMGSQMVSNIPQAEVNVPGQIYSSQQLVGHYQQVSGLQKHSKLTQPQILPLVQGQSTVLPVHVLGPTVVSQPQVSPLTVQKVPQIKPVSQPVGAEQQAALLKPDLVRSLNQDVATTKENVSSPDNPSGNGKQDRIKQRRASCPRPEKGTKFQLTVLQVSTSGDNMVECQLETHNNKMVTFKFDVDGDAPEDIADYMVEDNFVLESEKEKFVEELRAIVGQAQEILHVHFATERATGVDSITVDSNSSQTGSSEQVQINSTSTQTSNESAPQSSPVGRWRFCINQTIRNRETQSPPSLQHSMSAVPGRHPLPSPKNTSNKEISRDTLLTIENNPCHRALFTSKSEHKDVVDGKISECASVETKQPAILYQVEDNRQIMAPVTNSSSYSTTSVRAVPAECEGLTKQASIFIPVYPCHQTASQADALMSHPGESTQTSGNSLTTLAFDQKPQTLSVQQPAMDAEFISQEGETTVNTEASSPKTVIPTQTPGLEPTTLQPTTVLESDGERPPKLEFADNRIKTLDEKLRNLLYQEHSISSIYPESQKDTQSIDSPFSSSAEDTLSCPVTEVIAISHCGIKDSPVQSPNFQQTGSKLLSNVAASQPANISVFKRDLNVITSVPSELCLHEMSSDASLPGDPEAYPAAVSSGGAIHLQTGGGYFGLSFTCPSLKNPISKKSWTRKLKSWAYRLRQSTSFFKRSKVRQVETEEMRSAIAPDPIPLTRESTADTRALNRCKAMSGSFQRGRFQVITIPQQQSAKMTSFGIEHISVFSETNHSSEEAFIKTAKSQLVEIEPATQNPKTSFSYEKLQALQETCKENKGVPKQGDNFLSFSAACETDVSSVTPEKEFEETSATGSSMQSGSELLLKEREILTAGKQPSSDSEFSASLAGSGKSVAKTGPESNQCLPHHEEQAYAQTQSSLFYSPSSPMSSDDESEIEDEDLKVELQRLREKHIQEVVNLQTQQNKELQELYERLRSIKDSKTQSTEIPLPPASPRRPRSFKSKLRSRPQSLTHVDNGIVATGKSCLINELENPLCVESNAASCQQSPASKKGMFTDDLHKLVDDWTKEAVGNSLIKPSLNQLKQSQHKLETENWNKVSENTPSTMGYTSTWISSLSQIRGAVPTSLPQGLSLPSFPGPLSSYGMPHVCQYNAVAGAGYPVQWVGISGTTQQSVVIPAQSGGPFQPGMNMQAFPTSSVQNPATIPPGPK

[1] = molecular target: T6, TYK2(JH2domain-pseudokinase) (Homo sapiens, UniProt P29597); details: read-out: % control activity remaining
T6 construct: TYK2(JH2domain-pseudokinase); purchased Eurofins DiscoverX KINOMEscan

IKK-alpha = molecular target: T7, IKK-alpha (Homo sapiens, UniProt O15111); details: read-out: % control activity remaining
T7 construct: purchased Eurofins DiscoverX KINOMEscan
T7 sequence (O15111 1-745): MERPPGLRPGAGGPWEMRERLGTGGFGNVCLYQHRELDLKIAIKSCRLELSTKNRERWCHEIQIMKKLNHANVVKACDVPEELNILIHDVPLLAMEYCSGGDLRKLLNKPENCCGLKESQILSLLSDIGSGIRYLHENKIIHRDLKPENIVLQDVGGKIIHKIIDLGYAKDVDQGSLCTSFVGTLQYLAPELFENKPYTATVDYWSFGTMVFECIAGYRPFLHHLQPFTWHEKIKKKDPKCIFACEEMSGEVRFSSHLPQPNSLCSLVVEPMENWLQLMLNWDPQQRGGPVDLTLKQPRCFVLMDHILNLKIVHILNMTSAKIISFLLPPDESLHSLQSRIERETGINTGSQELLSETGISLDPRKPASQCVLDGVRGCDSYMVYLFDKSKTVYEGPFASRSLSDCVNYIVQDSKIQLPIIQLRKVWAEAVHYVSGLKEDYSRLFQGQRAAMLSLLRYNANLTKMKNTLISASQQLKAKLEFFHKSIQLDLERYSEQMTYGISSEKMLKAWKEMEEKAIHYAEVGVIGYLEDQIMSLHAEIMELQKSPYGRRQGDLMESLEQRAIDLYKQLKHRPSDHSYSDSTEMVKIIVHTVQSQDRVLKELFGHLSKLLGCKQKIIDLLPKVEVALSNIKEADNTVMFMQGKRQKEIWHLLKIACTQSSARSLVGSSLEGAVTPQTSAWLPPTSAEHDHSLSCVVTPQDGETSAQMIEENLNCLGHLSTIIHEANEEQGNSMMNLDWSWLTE

PLK3 = molecular target: T8, PLK3 (Homo sapiens, UniProt Q9H4B4); details: read-out: % control activity remaining
T8 construct: purchased Eurofins DiscoverX KINOMEscan
T8 sequence (Q9H4B4 whole entry): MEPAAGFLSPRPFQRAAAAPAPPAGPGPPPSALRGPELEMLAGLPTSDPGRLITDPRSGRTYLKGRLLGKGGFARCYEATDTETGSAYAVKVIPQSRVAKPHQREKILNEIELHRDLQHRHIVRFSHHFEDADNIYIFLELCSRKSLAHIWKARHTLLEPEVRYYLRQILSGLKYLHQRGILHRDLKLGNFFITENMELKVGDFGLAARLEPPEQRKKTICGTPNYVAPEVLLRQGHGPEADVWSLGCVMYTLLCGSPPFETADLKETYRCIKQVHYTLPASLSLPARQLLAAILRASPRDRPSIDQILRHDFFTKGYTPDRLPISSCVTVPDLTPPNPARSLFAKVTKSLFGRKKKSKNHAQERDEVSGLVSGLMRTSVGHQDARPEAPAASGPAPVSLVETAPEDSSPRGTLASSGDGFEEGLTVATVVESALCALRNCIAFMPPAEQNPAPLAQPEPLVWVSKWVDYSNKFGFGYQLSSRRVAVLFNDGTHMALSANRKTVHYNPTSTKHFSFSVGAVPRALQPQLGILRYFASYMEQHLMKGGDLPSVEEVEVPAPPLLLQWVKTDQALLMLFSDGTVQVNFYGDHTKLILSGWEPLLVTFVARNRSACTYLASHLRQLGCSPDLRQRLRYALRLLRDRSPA

PIK3CA(H1047Y) = molecular target: T9, PIK3CA(H1047Y) (Homo sapiens, UniProt P42336, H1047Y); details: read-out: % control activity remaining
T9 construct: purchased Eurofins DiscoverX KINOMEscan

PCTK2 = molecular target: T10, PCTK2 (Homo sapiens, UniProt Q00537); details: for remaining binding at 1 µM: read-out: % control activity remaining
T10 construct: purchased Eurofins DiscoverX KINOMEscan

MEK5 = molecular target: T11, MEK5 (Homo sapiens, UniProt Q13163); details: read-out: % control activity remaining
T11 construct: purchased Eurofins DiscoverX KINOMEscan
T11 sequence (Q13163 1-448): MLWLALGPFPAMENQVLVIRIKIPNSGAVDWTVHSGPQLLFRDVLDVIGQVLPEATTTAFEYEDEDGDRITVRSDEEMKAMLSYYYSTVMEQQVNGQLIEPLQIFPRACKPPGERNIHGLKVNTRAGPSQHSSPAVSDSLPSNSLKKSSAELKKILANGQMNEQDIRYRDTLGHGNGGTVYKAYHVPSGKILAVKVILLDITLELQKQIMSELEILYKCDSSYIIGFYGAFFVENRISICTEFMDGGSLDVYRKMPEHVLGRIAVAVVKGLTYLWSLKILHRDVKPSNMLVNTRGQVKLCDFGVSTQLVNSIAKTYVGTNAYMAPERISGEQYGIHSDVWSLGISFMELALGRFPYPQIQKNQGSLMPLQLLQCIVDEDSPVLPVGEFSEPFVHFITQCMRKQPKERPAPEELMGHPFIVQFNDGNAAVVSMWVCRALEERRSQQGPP

MELK = molecular target: T12, MELK (Homo sapiens, UniProt Q14680); details: read-out: % control activity remaining
T12 construct: purchased Eurofins DiscoverX KINOMEscan
T12 sequence (Q14680 whole entry): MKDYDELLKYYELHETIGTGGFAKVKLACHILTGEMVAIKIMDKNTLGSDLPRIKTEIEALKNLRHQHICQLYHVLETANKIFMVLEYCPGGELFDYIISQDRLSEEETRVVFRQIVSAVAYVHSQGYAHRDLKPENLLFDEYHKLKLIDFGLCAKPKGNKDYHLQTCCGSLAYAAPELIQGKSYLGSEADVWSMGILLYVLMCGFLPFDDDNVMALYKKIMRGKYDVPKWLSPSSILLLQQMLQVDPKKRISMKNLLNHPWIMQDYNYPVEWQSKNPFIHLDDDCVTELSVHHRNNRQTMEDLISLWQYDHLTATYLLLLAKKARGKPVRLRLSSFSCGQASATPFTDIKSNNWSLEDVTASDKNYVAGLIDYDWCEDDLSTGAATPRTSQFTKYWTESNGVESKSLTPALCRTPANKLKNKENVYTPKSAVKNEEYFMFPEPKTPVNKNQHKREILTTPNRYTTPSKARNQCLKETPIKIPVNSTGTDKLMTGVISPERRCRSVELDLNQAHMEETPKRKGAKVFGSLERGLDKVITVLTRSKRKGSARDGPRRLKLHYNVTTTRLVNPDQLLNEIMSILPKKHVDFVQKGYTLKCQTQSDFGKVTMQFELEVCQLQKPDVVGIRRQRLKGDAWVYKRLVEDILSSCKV

ALK(C1156Y) = molecular target: T13, ALK(C1156Y) (Homo sapiens, UniProt Q9UM73, C1156Y); details: read-out: % control activity remaining
T13 construct: purchased Eurofins DiscoverX KINOMEscan

GSK3A = molecular target: T14, GSK3A (Homo sapiens, UniProt P49840); details: read-out: % control activity remaining
T14 construct: purchased Eurofins DiscoverX KINOMEscan

WEE2 = molecular target: T15, WEE2 (Homo sapiens, UniProt P0C1S8); details: read-out: % control activity remaining
T15 construct: purchased Eurofins DiscoverX KINOMEscan
T15 sequence (P0C1S8 whole entry): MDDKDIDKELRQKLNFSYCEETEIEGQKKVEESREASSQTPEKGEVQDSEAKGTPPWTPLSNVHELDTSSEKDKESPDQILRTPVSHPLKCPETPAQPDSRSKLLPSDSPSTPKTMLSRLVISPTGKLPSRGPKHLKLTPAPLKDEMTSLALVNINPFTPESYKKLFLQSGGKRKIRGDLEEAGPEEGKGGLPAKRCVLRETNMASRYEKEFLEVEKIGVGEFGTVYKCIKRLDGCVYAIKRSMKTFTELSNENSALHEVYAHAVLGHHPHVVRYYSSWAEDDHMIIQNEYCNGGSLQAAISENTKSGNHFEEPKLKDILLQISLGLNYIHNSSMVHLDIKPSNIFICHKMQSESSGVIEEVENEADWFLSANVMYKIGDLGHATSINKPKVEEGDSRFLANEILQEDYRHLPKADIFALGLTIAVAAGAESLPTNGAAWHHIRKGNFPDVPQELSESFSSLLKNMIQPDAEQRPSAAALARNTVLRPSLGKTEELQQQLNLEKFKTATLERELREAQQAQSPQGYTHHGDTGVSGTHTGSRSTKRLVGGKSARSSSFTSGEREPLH

[2] = molecular target: T16, RSK2(Kin.Dom.1-N-terminal) (Homo sapiens, UniProt P51812); details: read-out: % control activity remaining
T16 construct: RSK2(Kin.Dom.1-N-terminal); purchased Eurofins DiscoverX KINOMEscan
T16 sequence (P51812 68-327 limits assumed): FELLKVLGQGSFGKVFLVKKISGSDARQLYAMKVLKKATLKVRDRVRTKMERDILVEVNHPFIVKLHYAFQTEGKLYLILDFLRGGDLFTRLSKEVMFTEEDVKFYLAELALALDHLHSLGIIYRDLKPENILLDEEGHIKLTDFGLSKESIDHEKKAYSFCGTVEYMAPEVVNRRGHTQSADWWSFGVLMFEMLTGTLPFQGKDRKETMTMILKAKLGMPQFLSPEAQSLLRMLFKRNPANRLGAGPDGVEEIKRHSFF

MTOR = molecular target: T17, MTOR (Homo sapiens, UniProt P42345); details: read-out: % control activity remaining
T17 construct: purchased Eurofins DiscoverX KINOMEscan

MEK1 = molecular target: T18, MEK1 (Homo sapiens, UniProt Q02750); details: read-out: % control activity remaining
T18 construct: purchased Eurofins DiscoverX KINOMEscan

NEK6 = molecular target: T19, NEK6 (Homo sapiens, UniProt Q9HC98); details: read-out: % control activity remaining
T19 construct: purchased Eurofins DiscoverX KINOMEscan
T19 sequence (Q9HC98 whole entry): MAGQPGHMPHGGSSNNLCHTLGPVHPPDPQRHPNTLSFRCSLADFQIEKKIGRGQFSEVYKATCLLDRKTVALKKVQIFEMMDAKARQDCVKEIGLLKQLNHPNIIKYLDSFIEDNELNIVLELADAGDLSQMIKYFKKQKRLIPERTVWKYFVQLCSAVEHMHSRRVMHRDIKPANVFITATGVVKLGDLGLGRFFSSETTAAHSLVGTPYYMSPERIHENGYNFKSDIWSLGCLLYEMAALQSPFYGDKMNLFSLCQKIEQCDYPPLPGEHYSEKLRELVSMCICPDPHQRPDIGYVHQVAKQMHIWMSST

**Q.** Which remaining binding at 1 µM (EGFR) does the source give for `Clc1cc(NCC2CC2)c2ncc(-c3ccc4[nH]ncc4c3)n2n1` [compound 2, 6-Chloro-N-(cyclopropylmethyl)-3-(1H-indazol-5-yl)imidazo[1,2-b]pyridazin-8-amine] here?
**A.** Its remaining binding at 1 µM is 71%.

**Q.** And the remaining binding at 1 µM (BTK)?
**A.** Its remaining binding at 1 µM is 98%.

**Q.** And the remaining binding at 1 µM (PDGFRA)?
**A.** The remaining binding at 1 µM was 12%.

**Q.** And the remaining binding at 1 µM (ZAP70)?
**A.** Its remaining binding at 1 µM is 84%.

**Q.** And the remaining binding at 1 µM (WNK3)?
**A.** Its remaining binding at 1 µM is 96%.

**Q.** What about the remaining binding at 1 µM [1] of the same compound?
**A.** The remaining binding at 1 µM was 91%.

**Q.** What about the remaining binding at 1 µM (IKK-alpha) of the same compound?
**A.** Its remaining binding at 1 µM is 76%.

**Q.** And the remaining binding at 1 µM (PLK3)?
**A.** Its remaining binding at 1 µM is 90%.

**Q.** What about the remaining binding at 1 µM (PIK3CA(H1047Y)) of the same compound?
**A.** Its remaining binding at 1 µM is 89%.

**Q.** What about the remaining binding at 1 µM (PCTK2) of the same compound?
**A.** Its remaining binding at 1 µM is 98%.

**Q.** And the remaining binding at 1 µM (MEK5)?
**A.** The remaining binding at 1 µM was 85%.

**Q.** What about the remaining binding at 1 µM (MELK) of the same compound?
**A.** The remaining binding at 1 µM was 35%.

**Q.** What about the remaining binding at 1 µM (ALK(C1156Y)) of the same compound?
**A.** The remaining binding at 1 µM was 88%.

**Q.** What about the remaining binding at 1 µM (GSK3A) of the same compound?
**A.** Its remaining binding at 1 µM is 93%.

**Q.** What about the remaining binding at 1 µM (WEE2) of the same compound?
**A.** Its remaining binding at 1 µM is 94%.

**Q.** And the remaining binding at 1 µM [2]?
**A.** The remaining binding at 1 µM was 37%.

**Q.** And the remaining binding at 1 µM (MTOR)?
**A.** The remaining binding at 1 µM was 98%.

**Q.** What about the remaining binding at 1 µM (MEK1) of the same compound?
**A.** The remaining binding at 1 µM was 95%.

**Q.** And the remaining binding at 1 µM (NEK6)?
**A.** Its remaining binding at 1 µM is 99%.

**Q.** `O=C(CN1CCOCC1)N[C@H]1CC[C@H](Nc2cc(Cl)nn3c(-c4ccc5[nH]ncc5c4)cnc23)CC1` [compound 26] was tested. Which remaining binding at 1 µM (EGFR) did it give?
**A.** The remaining binding at 1 µM was 80%.

**Q.** What about the remaining binding at 1 µM (BTK) of the same compound?
**A.** The remaining binding at 1 µM was 100%.

**Q.** What about the remaining binding at 1 µM (PDGFRA) of the same compound?
**A.** The remaining binding at 1 µM was 0.3%.

**Q.** What about the remaining binding at 1 µM (ZAP70) of the same compound?
**A.** Its remaining binding at 1 µM is 100%.

**Q.** And the remaining binding at 1 µM (WNK3)?
**A.** The remaining binding at 1 µM was 100%.

**Q.** What about the remaining binding at 1 µM [1] of the same compound?
**A.** The remaining binding at 1 µM was 99%.

**Q.** What about the remaining binding at 1 µM (IKK-alpha) of the same compound?
**A.** The remaining binding at 1 µM was 100%.

**Q.** What about the remaining binding at 1 µM (PLK3) of the same compound?
**A.** Its remaining binding at 1 µM is 89%.

**Q.** What about the remaining binding at 1 µM (PIK3CA(H1047Y)) of the same compound?
**A.** Its remaining binding at 1 µM is 82%.

**Q.** And the remaining binding at 1 µM (PCTK2)?
**A.** The remaining binding at 1 µM was 66%.

**Q.** What about the remaining binding at 1 µM (MEK5) of the same compound?
**A.** Its remaining binding at 1 µM is 95%.

**Q.** And the remaining binding at 1 µM (MELK)?
**A.** The remaining binding at 1 µM was 16%.

**Q.** And the remaining binding at 1 µM (ALK(C1156Y))?
**A.** The remaining binding at 1 µM was 64%.

**Q.** What about the remaining binding at 1 µM (GSK3A) of the same compound?
**A.** The remaining binding at 1 µM was 100%.

**Q.** And the remaining binding at 1 µM (WEE2)?
**A.** Its remaining binding at 1 µM is 87%.

**Q.** And the remaining binding at 1 µM [2]?
**A.** The remaining binding at 1 µM was 19%.

**Q.** And the remaining binding at 1 µM (MTOR)?
**A.** The remaining binding at 1 µM was 100%.

**Q.** And the remaining binding at 1 µM (MEK1)?
**A.** Its remaining binding at 1 µM is 93%.

**Q.** What about the remaining binding at 1 µM (NEK6) of the same compound?
**A.** Its remaining binding at 1 µM is 100%.

**Q.** Which results are given for `CN1CCC(CNc2cc(Cl)nn3c(-c4cc5nc(Nc6ccccc6)[nH]c5cc4F)cnc23)CC1` [compound 31, 6-Chloro-3-(6-fluoro-2-(phenylamino)-1H-benzo[d]imidazol-5-yl)-N-((1-methylpiperidin-4-yl)methyl)imidazo[1,2-b]pyridazin-8-amine]?
**A.** remaining binding at 1 µM (EGFR): 100%; remaining binding at 1 µM (BTK): 70%; remaining binding at 1 µM (PDGFRA): 94%; remaining binding at 1 µM (ZAP70): 83%; remaining binding at 1 µM (WNK3): 82%; remaining binding at 1 µM [1]: 73%; remaining binding at 1 µM (IKK-alpha): 90%; remaining binding at 1 µM (PLK3): 90%; remaining binding at 1 µM (PIK3CA(H1047Y)): 100%; remaining binding at 1 µM (PCTK2): 2.7%; inhibition at 1 µM (PCTK2; read-out: Probe binding inhibited, 1 μM): 97%; remaining binding at 1 µM (MEK5): 71%; remaining binding at 1 µM (MELK): 96%; remaining binding at 1 µM (ALK(C1156Y)): 91%; remaining binding at 1 µM (GSK3A): 84%; remaining binding at 1 µM (WEE2): 97%; remaining binding at 1 µM [2]: 100%; remaining binding at 1 µM (MTOR): 89%; remaining binding at 1 µM (MEK1): 80%; remaining binding at 1 µM (NEK6): 96%
